What was measured:
Settings in all cases: 0 to 10 scale where 0 is no effect and 10 is complete control
crabgrass = test: Test A crabgrass; format: in vivo, Digitaria spp.
How it was run: (§1)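 Ratings came from visual comparison with untreated plants about eleven days after treatment, scored 0 for no effect through 10 for complete control. Both soil-drench preemergence and runoff-spray postemergence applications were made at the same time.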

velvetleaf = test: Test A velvetleaf; format: in vivo, Abutilon theophrasti
How it was run: as §1

barnyardgrass = test: Test A barnyardgrass; format: in vivo, Echinochloa crus-galli
How it was run: as §1

morningglory = test: Test A morningglory; format: in vivo, Ipomoea spp.
How it was run: as §1

Structure (SMILES)	Plant response rating, Crabgrass (crabgrass; Postemergence, Rate 1000 g/ha)	Plant response rating, Crabgrass (crabgrass; Pre-emergence, Rate 2000 g/ha)	Plant response rating, Velvetleaf (velvetleaf; Postemergence, Rate 1000 g/ha)	Plant response rating, Velvetleaf (velvetleaf; Pre-emergence, Rate 2000 g/ha)	Plant response rating, Barnyardgrass (barnyardgrass; Postemergence, Rate 1000 g/ha)	Plant response rating, Barnyardgrass (barnyardgrass; Pre-emergence, Rate 2000 g/ha)	Plant response rating, Morningglory (morningglory; Postemergence, Rate 1000 g/ha)	Plant response rating, Morningglory (morningglory; Pre-emergence, Rate 2000 g/ha)
CC(C)N(C(=O)n1oc(=O)n(C)c1=O)c1ccc(Cl)cc1 [Compound 137]	8	10	2	5	8	10	10	3
CC(C)N(C(=O)n1oc(=O)n(N(C)c2ccccc2)c1=O)c1ccc(F)cc1 [Compound 177]	3	9	2	1	0	9	0	0
CCN(C(=O)n1oc(=O)n(N(C)c2ccccc2)c1=O)C1CCCCC1 [Compound 183]	1	5	0	0	0	9	0	0
CC(C)N(C(=O)n1oc(=O)n(C2CCCC(C(F)(F)F)C2)c1=O)c1ccc(F)cc1 (centres unmarked) [Compound 184]	1	9	2	0	2	9	10	0

Source: US6737383B1, “Herbicidal oxadiazolidines” (priority 1999, dated 2004)
